In PubChem BioAssay AID977614 (Broad Institute, 2014) one finds AC50 data, which are given here for 70 molecules.

Activity calls are given as the source filed them.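 The calls were made as follows: active = parasite count per well reduced by over 3 SD from the mean, with host cell number above 80% of untreated; inactive = the rest.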

In the experiment the test system is L. donovani amastigotes in THP-1 macrophages, DAPI imaging, 72 h. The experiment in a line: antileishmanial activity in infected macrophages – imaging, THP-1 host macrophages, single concentration (AID 977614).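 Also: signal is the parasite per host cell ratio from DAPI stained kinetoplasts and nuclei.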
By AC50 is commonly meant the concentration giving half of the maximal activity seen. Take `COc1ccccc1C(=O)N1C[C@H]2[C@@H](c3ccccc31)[C@@H](CO)N2CC1CCCC1`: the AC50 is > 10 µM (inactive). As for `COc1ccc(CN2[C@H](CO)[C@@H]3c4ccccc4NC[C@@H]32)cc1`, the AC50 was > 10 µM (inactive). Consider `C[C@H]1CN([C@@H](C)CO)C(=O)CCCn2cc(nn2)CO[C@@H]1CN(C)C(=O)Nc1cccc(C(F)(F)F)c1`, for which the AC50 is > 10 µM (inactive). Turning to `OC[C@H]1[C@@H]2c3ccccc3NC[C@@H]2N1CC1CCOCC1`, the AC50 was > 10 µM (inactive). For `OC[C@H]1N[C@@H](CNCC2CCC2)[C@@H]1c1ccc(C2=CCCCC2)cc1` the value was > 10 µM (inactive). For `C[C@H](CO)N1C[C@H](C)[C@@H](CN(C)C(=O)NC2CCCC2)OCc2cnnn2CCCC1=O`, the AC50 is > 10 µM (inactive). As to `C[C@H]1CN([C@@H](C)CO)C(=O)CCCn2nncc2CO[C@H]1CN(C)C(=O)c1cc(-c2ccccc2)on1`, the AC50 is > 10 µM (inactive). For the molecule `C[C@@H]1CN([C@H](C)CO)C(=O)CCCn2nncc2CO[C@@H]1CN(C)S(=O)(=O)c1ccccc1C#N`, the AC50 is > 10 µM (inactive). As for `CC(C)NC(=O)N1[C@H](CNC(=O)CN(C)C)[C@H](c2ccccc2)[C@@H]1CO`, the figure is > 10 µM (inactive). Take `O=C(CN1CCOCC1)NC[C@@H]1N[C@@H](CO)[C@H]1c1ccc(-c2ccccc2)cc1`: the AC50 is > 10 µM (inactive). With `C[C@@H]1CN([C@H](C)CO)C(=O)CCCn2nncc2CO[C@@H]1CN(C)Cc1ccc(C(=O)Nc2ccccc2N)cc1`, the AC50 was > 10 µM (inactive). Take `O=C(CC1CC1)NC[C@H]1N[C@H](CO)[C@@H]1c1ccc(-c2ccc(F)cc2)cc1`: the AC50 is > 10 µM (inactive). For `CCCNC(=O)N1C[C@H]2[C@@H](c3ccccc31)[C@H](CO)N2Cc1cccc(OC)c1` the value was > 10 µM (inactive); for `O=S(=O)(NC[C@@H]1[C@@H](c2ccccc2)[C@@H](CO)N1CC1CC1)c1ccccc1`, > 10 µM (inactive); for `O=C(c1ccccn1)N1C[C@H]2[C@@H](c3ccccc31)[C@@H](CO)N2C(=O)Nc1ccccc1Cl`, > 10 µM (inactive).

`C[C@@H]1CN([C@@H](C)CO)C(=O)CCCn2nncc2CO[C@@H]1CN(C)C(=O)NC1CCCC1`: the AC50 was > 10 µM (inactive). For `C[C@H]1CN([C@@H](C)CO)C(=O)CCCn2cc(nn2)CO[C@H]1CN(C)C(=O)Oc1ccc2ccccc2c1` the value was > 10 µM (inactive); for `C[C@@H]1CN([C@H](C)CO)C(=O)CCCn2cc(nn2)CO[C@H]1CN(C)S(=O)(=O)c1ccc(-n2cccn2)cc1`, > 10 µM (inactive).

As for `O=C(c1ccncc1)N1C[C@H]2[C@@H](c3ccccc31)[C@H](CO)N2C(=O)CN1CCOCC1`, the AC50 is > 10 µM (inactive). With `O=C(c1cccc(F)c1)N1C[C@H]2[C@@H](c3ccccc31)[C@@H](CO)N2Cc1cocn1`, the AC50 is > 10 µM (inactive). Consider `CN(C[C@H]1N[C@H](CO)[C@@H]1c1ccc(-c2cccnc2)cc1)C(=O)NC1CCCC1`, for which the AC50 is > 10 µM (inactive).

For the molecule `O=C(c1ccccn1)N1C[C@@H]2[C@H](c3ccccc31)[C@H](CO)N2C(=O)C1CCCCC1`, the AC50 was > 10 µM (inactive).

As to `O=C(CC1CC1)N1[C@H](CO)[C@@H]2c3ccccc3N(S(=O)(=O)c3ccccc3F)C[C@@H]21`, the AC50 was > 10 µM (inactive). Regarding `C[C@@H]1CN([C@H](C)CO)C(=O)CCCn2nncc2CO[C@@H]1CN(C)C(=O)Nc1ccccc1C(F)(F)F`, the AC50 is > 10 µM (inactive). Turning to `CCC(=O)N1[C@H](CO)[C@H](c2ccc(C#CC(C)(C)O)cc2)[C@@H]1CN(C)C(C)=O`, the AC50 was > 10 µM (inactive). For `C[C@H]1CN([C@@H](C)CO)C(=O)CCCn2nncc2CO[C@H]1CN(C)C(=O)Nc1ccccc1C(F)(F)F`, the AC50 is > 10 µM (inactive).

For the molecule `C[C@@H]1CN([C@H](C)CO)C(=O)CCCn2cc(nn2)CO[C@@H]1CN(C)Cc1ccccc1`, the AC50 was > 10 µM (inactive). As for `CC(=O)N1[C@H](CO)[C@@H]2c3ccccc3N(S(=O)(=O)c3ccccc3C)C[C@@H]21`, the figure is > 10 µM (inactive). As for `CCC(=O)N(CC(C)C)C[C@@H]1[C@@H](c2ccccc2)[C@H](CO)N1C(=O)C1CCC1`, the AC50 was > 10 µM (inactive). As for `CC(=O)N1[C@H](CNC(=O)CN(C)C)[C@@H](c2ccc(C3=CCCCC3)cc2)[C@@H]1CO`, the figure is > 10 µM (inactive); as for `CCC(=O)N1[C@H](CO)[C@@H]2c3ccccc3N(S(=O)(=O)c3ccc(F)cc3)C[C@@H]21`, > 10 µM (inactive). On to `O=C(C1CC1)N1C[C@@H]2[C@H](c3ccccc31)[C@H](CO)N2C(=O)c1ccccc1`, for which the AC50 is > 10 µM (inactive). With `CC(=O)N1[C@H](CO)[C@H](c2ccc(C3=CCCCC3)cc2)[C@@H]1CNC(=O)CN(C)C`, the AC50 was > 10 µM (inactive). `CC(=O)N1[C@H](CO)[C@@H](c2ccccc2)[C@@H]1CN(CC1CCC1)C(=O)CN(C)C`: the AC50 is > 10 µM (inactive).

With `O=C(NC[C@H]1[C@H](c2ccccc2)[C@H](CO)N1Cc1cccnc1)c1ccccn1`, the AC50 is > 10 µM (inactive). As for `COc1ccc(C(=O)N2C[C@H]3[C@@H](c4ccccc42)[C@H](CO)N3C(=O)NC(C)C)cc1`, the figure is > 10 µM (inactive).

For `CN1C[C@H]2[C@@H](c3ccccc31)[C@@H](CO)N2S(=O)(=O)c1ccccc1`, the AC50 was > 10 µM (inactive). Take `C[C@@H]1CN([C@@H](C)CO)C(=O)CCCn2nncc2CO[C@H]1CN(C)Cc1ccc2c(c1)OCCN2C`: the AC50 was > 10 µM (inactive). As for `CC(=O)N1[C@H](CO)[C@H](c2ccccc2)[C@@H]1CN(CC(C)C)C(=O)c1ccccn1`, the figure is > 10 µM (inactive); as for `CCCNC(=O)N1[C@H](CO)[C@@H]2c3ccccc3N(C(=O)c3ccncc3)C[C@@H]21`, > 10 µM (inactive); as for `COCC(=O)N1[C@@H](CO)[C@@H]2c3ccccc3N(C(=O)c3cccnc3)C[C@@H]21`, > 10 µM (inactive).

With `CCN(C[C@@H]1N[C@@H](CO)[C@H]1c1ccc(-c2ccc(F)cc2)cc1)C(=O)CN(C)C`, the AC50 is > 10 µM (inactive). For `O=C(c1ccncc1)N1C[C@@H]2[C@H](c3ccccc31)[C@H](CO)N2Cc1ccccc1F` the value was > 10 µM (inactive); for `O=C(c1ccccn1)N1C[C@H]2[C@@H](c3ccccc31)[C@@H](CO)N2C(=O)C1CCCCC1`, > 10 µM (inactive). For `CCN(C[C@@H]1[C@@H](c2ccccc2)[C@H](CO)N1C(=O)COC)S(C)(=O)=O`, the AC50 was > 10 µM (inactive). On to `COc1ccccc1NC(=O)N1C[C@@H]2[C@H](c3ccccc31)[C@H](CO)N2Cc1ccc2c(c1)OCO2`, for which the AC50 was > 10 µM (inactive). As for `COCCN(C[C@H]1[C@H](c2ccccc2)[C@@H](CO)N1C(=O)C1CC1)C(C)=O`, the figure is > 10 µM (inactive); as for `C[C@@H]1CN([C@@H](C)CO)C(=O)CCCn2cc(nn2)CO[C@@H]1CN(C)C(=O)Nc1cccc(C(F)(F)F)c1`, > 10 µM (inactive); as for `C[C@H](CO)N1C[C@H](C)[C@H](CN(C)C(=O)CCC(F)(F)F)OCc2cn(nn2)CCCC1=O`, > 10 µM (inactive). For `C[C@H]1CN([C@@H](C)CO)C(=O)CCCn2nncc2CO[C@@H]1CN(C)C(=O)Nc1ccc(-c2cccs2)cc1`, the AC50 was > 10 µM (inactive). For the molecule `CCC(=O)N1[C@@H](CO)[C@@H]2c3ccccc3N(C(=O)c3cnccn3)C[C@@H]21`, the AC50 was > 10 µM (inactive). Regarding `O=C(c1ccc2c(c1)OCO2)N1C[C@H]2[C@@H](c3ccccc31)[C@@H](CO)N2C(=O)CC1CC1`, the AC50 is > 10 µM (inactive). For `C[C@@H]1CN([C@@H](C)CO)C(=O)CCCn2nncc2CO[C@@H]1CN(C)Cc1ccccc1C(=O)O` the value was > 10 µM (inactive).

In the case of `CCN(C[C@H]1[C@H](c2ccc(-c3cccnc3)cc2)[C@@H](CO)N1C(C)=O)C(C)=O`, the AC50 was > 10 µM (inactive). For `Cc1noc(C)c1NC(=O)N(C)C[C@H]1OCc2cn(nn2)CCCC(=O)N([C@H](C)CO)C[C@H]1C` the value was > 10 µM (inactive); for `O=S(=O)(NC[C@H]1[C@@H](c2ccccc2)[C@@H](CO)N1CC1CC1)c1ccccc1`, > 10 µM (inactive); for `C/C=C/c1ccc([C@@H]2[C@@H](CO)N(C(C)=O)[C@@H]2CNC(=O)c2ccccc2)cc1`, > 10 µM (inactive). As for `CC(=O)NC[C@H]1[C@@H](c2ccc(C#CC(C)C)cc2)[C@@H](CO)N1Cc1ccccn1`, the figure is > 10 µM (inactive); as for `O=C(c1ccncc1)N1C[C@H]2[C@@H](c3ccccc31)[C@@H](CO)N2Cc1ccccc1F`, > 10 µM (inactive); as for `C[C@H](CO)N1C[C@H](C)[C@H](CN(C)Cc2ccc3cccnc3c2)OCc2cnnn2CCCC1=O`, > 10 µM (inactive). For `C[C@@H]1CN([C@H](C)CO)C(=O)CCCn2cc(nn2)CO[C@H]1CN(C)Cc1ccccc1` the value was > 10 µM (inactive); for `CNC[C@H]1OCc2cnnn2CCCC(=O)N([C@H](C)CO)C[C@H]1C`, > 10 µM (inactive); for `CC(=O)N1[C@H](CN(C)S(=O)(=O)c2ccccc2)[C@H](c2ccccc2)[C@@H]1CO`, > 10 µM (inactive). With `CN1C[C@H]2[C@@H](c3ccccc31)[C@@H](CO)N2C(=O)C1CCOCC1`, the AC50 is > 10 µM (inactive). In the case of `COCC(=O)N1[C@@H]2CNc3ccccc3[C@@H]2[C@@H]1CO`, the AC50 is > 10 µM (inactive). For the molecule `CCCNC(=O)N1[C@H](CNC(=O)c2cccc(F)c2)[C@@H](c2ccccc2)[C@@H]1CO`, the AC50 is > 10 µM (inactive). `C[C@H]1CN([C@@H](C)CO)C(=O)CCCn2cc(nn2)CO[C@H]1CN(C)C(=O)NC1CCCCC1`: the AC50 was > 10 µM (inactive). As for `CN1[C@H](CO)[C@H]2c3ccccc3N(C(=O)Nc3cc(F)ccc3F)C[C@H]21`, the AC50 is > 10 µM (inactive). Turning to `C[C@@H]1CN([C@H](C)CO)C(=O)CCCn2nncc2CO[C@H]1CN(C)C(=O)Nc1cccc(Oc2ccccn2)c1`, the AC50 was > 10 µM (inactive). On to `C[C@H](CO)N1C[C@H](C)[C@H](CN(C)CC2CCCCC2)OCc2cnnn2CCCC1=O`, for which the AC50 was > 10 µM (inactive).
